The experiment addresses T1, Dimer of Gag-Pol polyprotein [489-587] (Human immunodeficiency virus 1, UniProt P12497).
T1 construct: 489-587
Nature of the experiment: Protease Inhibition Assay. As to conditions: pH 5.5; 30 °C.

Structures are written as SMILES.

With `CC(C)(C)NC(=O)[C@@H]1C[C@@H]2CCCC[C@@H]2CN1C[C@@H](O)[C@H](Cc1ccccc1)NC(=O)[C@@H](NC(=O)c1ccc2ccccc2n1)[C@H]1CCOC1` [(3S,4aS,8aS)-N-tert-butyl-2-[(2R,3S)-2-hydroxy-3-[(2S)-2-[(3R)-oxolan-3-yl]-2-(quinolin-2-ylformamido)acetamido]-4-phenylbutyl]-decahydroisoquinoline-3-carboxamide], the IC50 worked out at 0.054 nM.

One may read the IC50 as the concentration that inhibits the measured activity by half. High values mean a need for much substance, low ones inhibition by little substance.
